Data reported in the supplement of paper PMC10307832.

Tests used:
Assay in all cases: relative viability (nuclei count vs DMSO), 5 days (fraction); higher = more cells survive
[1] = compound: C1=CC=C(C(=C1)C2=CC=C(C=C2)C3=CSC4=C3C(=C(C(=O)N4)C#N)O)O + N=C(N)NC(=N)NCCc1ccccc1 [Phenformin] (partner 250 µM)
In short: (§1)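 Lung cancer cell lines in 1536-well plates got either a single drug or a fixed anchor-drug dose together with five library-drug doses (not always all listed) in √10 steps, by pin tool, on the day after seeding. Nuclei were counted after 5 days, and relative viability is the treated-to-vehicle ratio of nuclei counts. Values are medians of duplicate plates.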

TGX 221 + Lapatinib = compound: CC1=CN2C(=O)C=C(N=C2C(=C1)C(C)NC3=CC=CC=C3)N4CCOCC4 [TGX 221] + CS(=O)(=O)CCNCc1ccc(-c2ccc3ncnc(Nc4ccc(OCc5cccc(F)c5)c(Cl)c4)c3c2)o1 [Lapatinib] (partner 2 µM)
In short: as §1

[2] = compound: O=C(CCCCCCNC(=O)c1cnc(N(c2ccccc2)c2ccccc2)nc1)NO [Ricolinostat] + N=C(N)NC(=N)NCCc1ccccc1 [Phenformin] (partner 250 µM)
In short: as §1

Ricolinostat + Olaparib = compound: O=C(CCCCCCNC(=O)c1cnc(N(c2ccccc2)c2ccccc2)nc1)NO [Ricolinostat] + O=C(c1cc(Cc2n[nH]c(=O)c3ccccc23)ccc1F)N1CCN(C(=O)C2CC2)CC1 [Olaparib] (partner 8 µM)
In short: as §1

Cell Line	relative viability ([1]; first compound 0.08 µM)	relative viability ([1]; first compound 0.253 µM)	relative viability ([1]; first compound 0.8 µM)	relative viability ([1]; first compound 2.53 µM)	relative viability ([1]; first compound 8 µM)	relative viability (TGX 221 + Lapatinib; first compound 0.08 µM)	relative viability (TGX 221 + Lapatinib; first compound 0.253 µM)	relative viability (TGX 221 + Lapatinib; first compound 0.8 µM)	relative viability (TGX 221 + Lapatinib; first compound 2.53 µM)	relative viability (TGX 221 + Lapatinib; first compound 8 µM)	relative viability ([2]; first compound 0.253 µM)	relative viability ([2]; first compound 0.8 µM)	relative viability ([2]; first compound 2.53 µM)	relative viability (Ricolinostat + Olaparib; first compound 0.253 µM)	relative viability (Ricolinostat + Olaparib; first compound 0.8 µM)	relative viability (Ricolinostat + Olaparib; first compound 2.53 µM)	relative viability ([2]; first compound 0.08 µM)	relative viability (Ricolinostat + Olaparib; first compound 0.08 µM)
A549	0.124	0.184	0.123	0.192	0.238	0.939	0.914	0.966	1.04	0.748	0.114	0.132	0.155	0.252	0.286	0.139		
LCLC-97TM1	0.43	0.443	0.463	0.498	0.46	1.12	0.726	1.12	1.05	1.02	0.417	0.45	0.204	0.446	0.486	0.341	0.314	0.355
NCI-H1437	0.297	0.452	0.237	0.303	0.26	0.904	0.722	0.773	0.72	0.711	0.561	0.292	0.23	0.595	0.598	0.409	0.23	0.628
NCI-H1915	0.342	0.32		0.376	0.325	0.88	0.978	0.999	0.963	0.985	0.358	0.347	0.363	0.237	0.248	0.201	0.324	0.255
SW 1573	0.343	0.351	0.343	0.333	0.233	1.01	1.01	1.1	0.852	1.12	0.393	0.474	0.551	0.508	0.534	0.404	0.316	0.436
NCI-H661	0.31	0.298	0.257	0.254	0.298	0.486	0.376	0.439	0.382	0.394	0.285	0.262	0.302	0.75	0.706	0.558	0.27	0.654
PC-3 [JPC-3]	0.452	0.454	0.44	0.488	0.516	0.448	0.46	0.445	0.431	0.429	0.472	0.488	0.475	1.06	1.07	0.971		0.865
201T	0.335	0.451	0.46	0.462	0.434		1.05	0.98	1.02	0.943	0.449	0.452	0.467	0.845	0.891	0.806	0.41	0.785
LK-2		0.466	0.376	0.661	0.245	0.853	0.891	0.887	0.915	1.01	0.547	0.499	0.449	0.687	0.691	0.575	0.415	0.623
